The target in the assay is T1, human CB2R (Homo sapiens, UniProt P34972).
T1 construct: host or cells: CHO cells
Kind of assay: CB2R mediated modulation of cAMP synthesis. The assay is classed as cell-based. Particulars: for agonistic activity: found through the use of the described assays (CB2 agonists), qualitative statement; for Emax: 0.5 h, read-out: Agonist Efficacy (%). In outline: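 Forskolin (10 uM)-driven cAMP in human CB2R-expressing CHO cells, read with DiscoverX-XS kit after 30 min compound exposure at 37 °C, 1 mM IBMX, 0.25% BSA. 100% defined as forskolin cAMP relative to 1 uM CP55940 inhibition. Agonist EC50 via four-parameter logistic model.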

Where [1] appears, read: CHO cells expressing human CB2R, cAMP inhibited by 1 uM CP55940 defined as 100%.

Where two headings read alike, the source gives them in different places.

T1 sequence (P34972 whole entry): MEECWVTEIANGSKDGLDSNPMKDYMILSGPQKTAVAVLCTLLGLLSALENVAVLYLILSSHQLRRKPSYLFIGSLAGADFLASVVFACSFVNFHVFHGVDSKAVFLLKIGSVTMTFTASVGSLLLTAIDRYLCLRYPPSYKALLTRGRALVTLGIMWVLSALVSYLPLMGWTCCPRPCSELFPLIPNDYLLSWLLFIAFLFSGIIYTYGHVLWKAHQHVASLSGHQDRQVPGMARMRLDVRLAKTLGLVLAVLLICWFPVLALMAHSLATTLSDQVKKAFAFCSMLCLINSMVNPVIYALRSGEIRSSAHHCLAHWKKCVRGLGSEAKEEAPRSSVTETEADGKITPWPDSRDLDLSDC

Consider `O=C(Nc1ccc(Oc2ccccc2)nc1)N1CCCN(C(=O)C2CCOCC2)CC1` [4-(Tetrahydro-pyran-4-carbonyl)-[1,4]diazepane-1-carboxylic acid (6-phenoxy-pyridin-3-yl)-amide], for which the agonistic activity result is recorded as “agonistic activity”.

As for `CC(c1ccc(NC(=O)N2CCCN(C(=O)C3CCOCC3)CC2)cc1)C(F)(F)F` (stereo not shown) [4-(Tetrahydro-pyran-4-carbonyl)-[1,4]diazepane-1-carboxylic acid [4-(2,2,2-trifluoro-1-methyl-ethyl)-phenyl]-amide], the agonistic activity result was “agonistic activity”. On the same count and under the same terms, the same measure for `O=C(Nc1ccc2ccccc2c1)N1CCCN(C(=O)C2CCOCC2)CC1` [4-(Tetrahydro-pyran-4-carbonyl)-[1,4]diazepane-1-carboxylic acid naphthalen-2-ylamide]: “agonistic activity”; for `O=C(Nc1cnc2ccccc2c1)N1CCCN(C(=O)C2CCOCC2)CC1` [4-(Tetrahydro-pyran-4-carbonyl)-[1,4]diazepane-1-carboxylic acid quinolin-3-ylamide]: “agonistic activity”.

For `CC(C)(C)c1cc(NC(=O)N2CCCN(C(=O)N3CCSCC3)CC2)no1` [4-(Thiomorpholine-4-carbonyl)-[1,4]diazepane-1-carboxylic acid (5-tert-butyl-isoxazol-3-yl)-amide], the agonistic activity entry was “agonistic activity”.

`CC(C)(C)c1cc(NC(=O)N2CCCN(C(=O)N3CCCOCC3)CC2)no1` [4-([1,4]Oxazepane-4-carbonyl)-[1,4]diazepane-1-carboxylic acid (5-tert-butyl-isoxazol-3-yl)-amide]: the agonistic activity result is recorded as “agonistic activity”.

Consider `CCCCc1ccc(NC(=O)N2CCCN(C(=O)c3ccccc3)CC2)cc1` [4-Benzoyl-[1,4]diazepane-1-carboxylic acid (4-butyl-phenyl)-amide], for which the agonistic activity entry is “agonistic activity”. On the same count and under the same terms, the same measure for `CC(C)c1ccc(NC(=O)N2CCCN(C(=O)c3ccccc3)CC2)cc1` [4-Benzoyl-[1,4]diazepane-1-carboxylic acid (4-isopropyl-phenyl)-amide]: “agonistic activity”. In the case of `O=C(Nc1ccc(C(F)(F)F)cc1)N1CCCN(C(=O)c2ccccc2)CC1` [4-Benzoyl-[1,4]diazepane-1-carboxylic acid (4-trifluoromethyl-phenyl)-amide], the agonistic activity entry is recorded as “agonistic activity”. Still for that read-out and setting: with `CC(C)(C)c1cc(NC(=O)N2CCCN(C(=O)C3CCCCCC3)CC2)no1` [4-Cycloheptanecarbonyl-[1,4]diazepane-1-carboxylic acid (5-tert-butyl-isoxazol-3-yl)-amide] the entry was “agonistic activity”.

Take `O=C(Nc1ccc(Cl)c(Cl)c1)N1CCCN(C(=O)C2CCCCC2)CC1` [4-Cyclohexanecarbonyl-[1,4]diazepane-1-carboxylic acid (3,4-dichloro-phenyl)-amide]: the agonistic activity result was “agonistic activity”.

As for `O=C(Nc1cc(Cl)cc(Cl)c1)N1CCCN(C(=O)C2CCCCC2)CC1` [4-Cyclohexanecarbonyl-[1,4]diazepane-1-carboxylic acid (3,5-dichloro-phenyl)-amide], the agonistic activity entry is on record as “agonistic activity”. The same measure, in the same setting: the same measure for `CCc1ccc(NC(=O)N2CCCN(C(=O)C3CCCCC3)CC2)cc1` [4-Cyclohexanecarbonyl-[1,4]diazepane-1-carboxylic acid (4-ethyl-phenyl)-amide]: “agonistic activity”; for `CC(C)c1ccc(NC(=O)N2CCCN(C(=O)C3CCCCC3)CC2)cc1` [4-Cyclohexanecarbonyl-[1,4]diazepane-1-carboxylic acid (4-isopropyl-phenyl)-amide]: “agonistic activity”; for `O=C(Nc1ccc(C(F)(F)F)cc1)N1CCCN(C(=O)C2CCCCC2)CC1` [4-Cyclohexanecarbonyl-[1,4]diazepane-1-carboxylic acid (4-trifluoromethyl-phenyl)-amide]: “agonistic activity”.

Take `O=C(Nc1ccc(SC(F)(F)F)cc1)N1CCCN(C(=O)C2CCCCC2)CC1` [4-Cyclohexanecarbonyl-[1,4]diazepane-1-carboxylic acid (4-trifluoromethylsulfanyl-phenyl)-amide]: the agonistic activity entry is “agonistic activity”. As for `CC(C)(C)c1cc(NC(=O)N2CCCN(C(=O)C3CCCCC3)CC2)no1` [4-Cyclohexanecarbonyl-[1,4]diazepane-1-carboxylic acid (5-tert-butyl-isoxazol-3-yl)-amide], the agonistic activity result was “agonistic activity”. Same read-out and setting: with `O=C(Nc1ccc2ccccc2c1)N1CCCN(C(=O)C2CCCCC2)CC1` [4-Cyclohexanecarbonyl-[1,4]diazepane-1-carboxylic acid naphthalen-2-ylamide] the entry was “agonistic activity”; with `CCCCc1ccc(NC(=O)N2CCCN(C(=O)C3CCCC3)CC2)cc1` [4-Cyclopentanecarbonyl-[1,4]diazepane-1-carboxylic acid (4-butyl-phenyl)-amide], “agonistic activity”.

On to `CC(C)(C)c1ccc(NC(=O)N2CCCN(C(=O)C3CCCC3)CC2)cc1` [4-Cyclopentanecarbonyl-[1,4]diazepane-1-carboxylic acid (4-tert-butyl-phenyl)-amide], for which the agonistic activity result is on record as “agonistic activity”. As for `CC(C)(C)c1cc(NC(=O)N2CCCN(C(=O)C3CCCC3)CC2)no1` [4-Cyclopentanecarbonyl-[1,4]diazepane-1-carboxylic acid (5-tert-butyl-isoxazol-3-yl)-amide], the agonistic activity entry was “agonistic activity”. With `O=C(Nc1ccc2ccccc2c1)N1CCCN(C(=O)C2CCCC2)CC1` [4-Cyclopentanecarbonyl-[1,4]diazepane-1-carboxylic acid naphthalen-2-ylamide], the agonistic activity result was “agonistic activity”. For the compound `CC(C)(C)c1cc(NC(=O)N2CCCN(C(=O)CN3CCS(=O)(=O)CC3)CC2)on1` [4-[2-(1,1-Dioxo-1λ^6-thiomorpholin-4-yl)-acetyl]-[1,4]diazepane-1-carboxylic acid (3-tert-butyl-isoxazol-5-yl)-amide], the agonistic activity entry is given as “agonistic activity”. For `CC(C)(C)c1cc(NC(=O)N2CCCN(C(=O)CN3CCC(F)(F)CC3)CC2)no1` [4-[2-(4,4-Difluoro-piperidin-1-yl)-acetyl]-[1,4]diazepane-1-carboxylic acid (5-tert-butyl-isoxazol-3-yl)-amide], the agonistic activity result is reported as “agonistic activity”. In the case of `C[C@@H]1CN(CC(=O)N2CCCN(C(=O)Nc3cc(C(C)(C)C)on3)CC2)C[C@H](C)O1` [4-[2-((2R,6S)-2,6-Dimethyl-morpholin-4-yl)-acetyl]-[1,4]diazepane-1-carboxylic acid (5-tert-butyl-isoxazol-3-yl)-amide], the agonistic activity result is recorded as “agonistic activity”. On the same count and under the same terms, the same measure for `CC(C)c1ccc(NC(=O)N2CCCN(C(=O)C(C)(C)C)CC2)cc1` [4-pivaloyl-[1,4]diazepane-1-carboxylic acid (4-isopropyl-phenyl)-amide]: “agonistic activity”. With `CC(C)c1ccc(NC(=O)N2CCCN(C(=O)C3CCCCC3)CC2)cc1` [Compound 34, 4-Cyclohexanecarbonyl-[1,4]diazepane-1-carboxylic acid (4-isopropyl-phenyl)-amide], the Emax under setting [1] turned out to be 102%. Besides, where the note is “read-out: hCB2 cAMP EC50”, the EC50 stood at 23 nM. Regarding `CC(C)c1ccc(NC(=O)N2CCCN(C(=O)CC3CCCCC3)CC2)cc1` [Compound 36, 4-(2-Cyclohexyl-acetyl)-[1,4]diazepane-1-carboxylic acid (4-isopropyl-phenyl)-amide], the Emax under setting [1] was found to be 95%. The EC50 (read-out: hCB2 cAMP EC50) turned out to be 29 nM.

`CC(C)c1ccc(NC(=O)N2CCCN(C(=O)c3ccc(Cl)cc3)CC2)cc1` [Compound 41, 4-(4-Chloro-benzoyl)-[1,4]diazepane-1-carboxylic acid (4-isopropyl-phenyl)-amide]: under setting [1], the Emax turned out to be 95%. The EC50 (read-out: hCB2 cAMP EC50) is 43 nM. The matching figures for `O=C(CC1CCCC1)N1CCCN(C(=O)Nc2ccc3ccccc3c2)CC1` [Compound 48, 4-(2-Cyclopentyl-acetyl)-[1,4]diazepane-1-carboxylic acid (2-naphthyl)-amide]: 100% and 53 nM. The matching figures for `CCCCCc1ccc(NC(=O)N2CCCN(C(=O)CC3CCCC3)CC2)cc1` [Compound 49, 4-(2-Cyclopentyl-acetyl)-[1,4]diazepane-1-carboxylic acid (4-n-pentyl-phenyl)-amide]: 73% and 48 nM. For the compound `CCC(C)c1ccc(NC(=O)N2CCCN(C(=O)CC3CCCC3)CC2)cc1` (stereo not shown) [Compound 52, 4-(2-Cyclopentyl-acetyl)-[1,4]diazepane-1-carboxylic acid (4-sec-butyl-phenyl)-amide], the EC50 came out at 7.1 nM. Besides, the Emax (CHO) worked out at 98%. As to `CC(C)c1ccc(NC(=O)N2CCCN(C(=O)CCC3CC3)CC2)cc1` [Compound 55, 4-(3-Cyclopropyl-propionyl)-[1,4]diazepane-1-carboxylic acid (4-isopropyl-phenyl)-amide], under setting [1], the Emax was determined as 105%. Moreover, under “read-out: hCB2 cAMP EC50”, the EC50 is 89 nM. For the compound `CC(C)c1ccc(NC(=O)N2CCCN(C(=O)CCC3CCCCC3)CC2)cc1` [Compound 56, 4-(3-Cyclohexyl-propionyl)-[1,4]diazepane-1-carboxylic acid (4-isopropyl-phenyl)-amide], the Emax under setting [1] came out at 103%. Moreover, the EC50 (read-out: hCB2 cAMP EC50) amounted to 22 nM. `CC(C)c1ccc(NC(=O)N2CCCN(C(=O)CC(C)(C)C)CC2)cc1` [Compound 60, 4-(3,3-Dimethyl-butyryl)-[1,4]diazepane-1-carboxylic acid (4-isopropyl-phenyl)-amide]: the EC50 is 78 nM. Moreover, the Emax (CHO) was determined as 71%. Consider `O=C(Nc1ccc2ccccc2c1)N1CCCN(C(=O)C2CCCCC2)CC1` [Compound 68, 4-Cyclohexanecarbonyl-[1,4]diazepane-1-carboxylic acid naphthalen-2-ylamide], for which, under setting [1], the Emax stood at 99%. Also, the EC50 (read-out: hCB2 cAMP EC50) turned out to be 26 nM.

The values above are taken from patent US8173638B2 (Boehringer Ingelheim International GmbH, priority 2006, dated 2012).
